This passage reports MIC, IC50 and solubility results from ChEMBL document CHEMBL2390858, “Design, synthesis and anti-tuberculosis activity of 1-adamantyl-3-heteroaryl ureas with improved in vitro pharmacokinetic properties” (Bioorg Med Chem, 2013).

In brackets after ≈: the same amount, converted by molar mass.

By IC50 is commonly meant the point on the concentration scale where inhibition reaches its midpoint. A lower IC50 goes with greater potency in that assay. As a reminder, the solubility is the concentration that dissolves in the medium under given conditions. Higher therefore signals much dissolved substance.

One series concerns Acinetobacter. Kind of series: microbe, parasite or virus in culture.
The next series deals with Bacillus anthracis. The experiment in a line: microbe, parasite or virus in culture. To be noted: Sterne.
The subject of another series is Streptococcus pneumoniae. Kind of series: microbe, parasite or virus in culture.
A further series relates to Proteus mirabilis. The experiment in a line: microbe, parasite or virus in culture.
For series [1], the system named is Staphylococcus aureus. The experiment in a line: microbe, parasite or virus in culture. The note with it: ATCC 29213.
Series [2] concerns the target T1, Bifunctional epoxide hydrolase 2 (Homo sapiens, UniProt P34913).
T1 sequence (P34913 whole entry): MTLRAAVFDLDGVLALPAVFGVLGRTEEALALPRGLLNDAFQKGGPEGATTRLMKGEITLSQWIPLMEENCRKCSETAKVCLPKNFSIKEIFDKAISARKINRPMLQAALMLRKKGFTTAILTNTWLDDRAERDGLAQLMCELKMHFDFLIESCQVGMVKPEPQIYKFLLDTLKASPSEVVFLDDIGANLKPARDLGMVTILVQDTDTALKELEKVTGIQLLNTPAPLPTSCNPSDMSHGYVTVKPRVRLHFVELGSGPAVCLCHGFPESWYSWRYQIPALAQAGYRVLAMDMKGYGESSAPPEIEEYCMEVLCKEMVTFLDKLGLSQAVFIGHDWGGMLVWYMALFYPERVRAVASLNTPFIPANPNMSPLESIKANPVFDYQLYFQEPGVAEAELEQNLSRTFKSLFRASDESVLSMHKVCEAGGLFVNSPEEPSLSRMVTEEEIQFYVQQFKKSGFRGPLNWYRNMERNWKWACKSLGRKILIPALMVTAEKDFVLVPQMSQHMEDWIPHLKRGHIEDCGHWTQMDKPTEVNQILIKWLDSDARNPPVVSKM

The next series deals with Pseudomonas aeruginosa. The experiment in a line: microbe, parasite or virus in culture.
For a further series, the system named is Escherichia coli. Kind of series: microbe, parasite or virus in culture. To be noted: K-12.
The subject of series [3] is Mycobacterium tuberculosis. Kind of series: microbe, parasite or virus in culture. To be noted: H37Rv, 168 h.
Another series has as its system Bacillus subtilis. Kind of series: microbe, parasite or virus in culture.
Another series deals with Proteus vulgaris. Kind of series: microbe, parasite or virus in culture.
The subject of another series is Burkholderia cepacia. The experiment in a line: microbe, parasite or virus in culture.
Another series has as its system Streptococcus pyogenes. Kind of series: microbe, parasite or virus in culture.
The subject of another series is Enterococcus faecalis. Kind of series: microbe, parasite or virus in culture.
A further series deals with Klebsiella pneumoniae. Kind of series: microbe, parasite or virus in culture.
The conditions of series [4]: buffer, 18 h, pH 7.4.
Series [5] concerns Staphylococcus aureus. Kind of series: microbe, parasite or virus in culture. To be noted: NRS70.

As to `Cc1cc(NC(=O)NC23CC4CC(CC(C4)C2)C3)no1`, the MIC in the series on Acinetobacter is more than 200 µg/mL; against Bacillus anthracis it was more than 200 µg/mL; with Streptococcus pneumoniae it was more than 200 µg/mL; against Proteus mirabilis, more than 200 µg/mL; with Staphylococcus aureus [1] it was 200 µg/mL (≈ 726 µM); against Pseudomonas aeruginosa, more than 200 µg/mL. Moreover, the MIC was more than 200 µg/mL in the series with Escherichia coli; 27 µg/mL (≈ 98.1 µM) in series [3]; 200 µg/mL (≈ 726 µM) in the series with Bacillus subtilis; more than 200 µg/mL against Proteus vulgaris; more than 200 µg/mL in the series with Burkholderia cepacia; more than 200 µg/mL in the series on Streptococcus pyogenes. For the same compound, the MIC in the series with Enterococcus faecalis, in the series on Klebsiella pneumoniae and against Staphylococcus aureus [5] was more than 200 µg/mL in each case. For the same compound, 136 nM corresponded to half-maximal inhibition in series [2] (IC50). The solubility in series [4] came out at 25.9 µg/mL (≈ 94.1 µM).

On to `O=C(Nc1nnc(C2CC2)o1)NC12CC3CC(CC(C3)C1)C2`, for which the MIC was more than 200 µg/mL with Acinetobacter; 50 µg/mL (≈ 165 µM) in the series on Bacillus anthracis; more than 200 µg/mL against Streptococcus pneumoniae; more than 200 µg/mL in the series with Proteus mirabilis; more than 200 µg/mL against Staphylococcus aureus [1]; more than 200 µg/mL against Pseudomonas aeruginosa. In addition, the MIC in the series on Escherichia coli was more than 200 µg/mL; in [3], 12.5 µg/mL (≈ 41.3 µM); against Bacillus subtilis it was 100 µg/mL (≈ 331 µM); against Proteus vulgaris it was more than 200 µg/mL; against Burkholderia cepacia, more than 200 µg/mL; with Streptococcus pyogenes, more than 200 µg/mL. Also, the MIC against Enterococcus faecalis, in the series on Klebsiella pneumoniae and in the series on Staphylococcus aureus [5] was more than 200 µg/mL throughout. In series [2], this compound registered an IC50 of 503 nM. Moreover, in series [4], the solubility was 38.3 µg/mL (≈ 127 µM).

`Cc1noc(NC(=O)NC23CC4CC(CC(C4)C2)C3)c1C#N`: the MIC in the series on Acinetobacter, with Bacillus anthracis, in the series on Streptococcus pneumoniae, in the series with Proteus mirabilis, against Staphylococcus aureus [1] and against Pseudomonas aeruginosa was more than 200 µg/mL in each case. Moreover, the MIC against Escherichia coli was more than 200 µg/mL; in series [3] it was 100 µg/mL (≈ 333 µM); in the series with Bacillus subtilis, more than 200 µg/mL; against Proteus vulgaris, more than 200 µg/mL; in the series on Burkholderia cepacia, 200 µg/mL (≈ 666 µM); in the series with Streptococcus pyogenes it was more than 200 µg/mL. Also, the MIC in the series with Enterococcus faecalis is 200 µg/mL (≈ 666 µM); in the series on Klebsiella pneumoniae, more than 200 µg/mL; in the series with Staphylococcus aureus [5], more than 200 µg/mL. For the same compound, the IC50 in [2] was 25 nM. Moreover, the solubility in series [4] is 1.2 µg/mL (≈ 4 µM).

Take `Cc1nc(NS(=O)(=O)c2ccc(NC(=O)NC34CC5CC(CC(C5)C3)C4)cc2)oc1C`: the MIC with Acinetobacter, against Bacillus anthracis, against Streptococcus pneumoniae, in the series on Proteus mirabilis, in the series on Staphylococcus aureus [1] and in the series on Pseudomonas aeruginosa was more than 200 µg/mL throughout. Further, the MIC in the series with Escherichia coli is more than 200 µg/mL; in series [3], more than 25 µg/mL; with Bacillus subtilis it was more than 200 µg/mL; against Proteus vulgaris it was more than 200 µg/mL; against Burkholderia cepacia, more than 200 µg/mL; in the series on Streptococcus pyogenes, more than 200 µg/mL. The MIC against Enterococcus faecalis, in the series with Klebsiella pneumoniae and in the series with Staphylococcus aureus [5] was more than 200 µg/mL in each case. This compound also gave an IC50 in series [2] of 13 nM. Also, the solubility in [4] is 27.1 µg/mL (≈ 61 µM).

Take `O=C(Nc1ncco1)NC1C2CC3CC(C2)CC1C3` (configuration not stated): the MIC against Acinetobacter, with Bacillus anthracis, with Streptococcus pneumoniae, against Proteus mirabilis, in the series with Staphylococcus aureus [1] and with Pseudomonas aeruginosa was more than 200 µg/mL in each case. Moreover, the MIC with Escherichia coli was more than 200 µg/mL; in [3], 12.5 µg/mL (≈ 47.8 µM); with Bacillus subtilis, more than 200 µg/mL; with Proteus vulgaris it was more than 200 µg/mL; in the series on Burkholderia cepacia, 6.25 µg/mL (≈ 23.9 µM); against Streptococcus pyogenes it was more than 200 µg/mL. The results for the MIC against Enterococcus faecalis, in the series with Klebsiella pneumoniae and with Staphylococcus aureus [5] were more than 200 µg/mL, more than 200 µg/mL and 200 µg/mL (≈ 765 µM), respectively. For the same compound, 46 nM corresponded to half-maximal inhibition in [2] (IC50). Besides, in [4], the solubility amounted to 14.9 µg/mL (≈ 57 µM).

Turning to `O=C(Nc1cccnc1)NC12CC3CC(CC(C3)C1)C2`, the MIC against Acinetobacter, with Bacillus anthracis, in the series with Streptococcus pneumoniae, in the series with Proteus mirabilis, against Staphylococcus aureus [1] and in the series on Pseudomonas aeruginosa was more than 200 µg/mL in each case. Also, the MIC was more than 200 µg/mL against Escherichia coli; 12.5 µg/mL (≈ 46.1 µM) in [3]; more than 200 µg/mL against Bacillus subtilis; more than 200 µg/mL in the series with Proteus vulgaris; more than 200 µg/mL in the series with Burkholderia cepacia; more than 200 µg/mL in the series with Streptococcus pyogenes. Besides, the MIC in the series on Enterococcus faecalis, with Klebsiella pneumoniae and in the series on Staphylococcus aureus [5] was more than 200 µg/mL each time. Also, the midpoint of inhibition in series [2], the IC50, lay at 113 nM. In [4], this compound displayed a solubility of 6.7 µg/mL (≈ 24.7 µM).

With `CCn1ccc(NC(=O)NC23CC4CC(CC(C4)C2)C3)n1`, the MIC in the series with Acinetobacter is more than 200 µg/mL; against Bacillus anthracis, 100 µg/mL (≈ 347 µM); with Streptococcus pneumoniae it was 200 µg/mL (≈ 693 µM); in the series with Proteus mirabilis, more than 200 µg/mL; against Staphylococcus aureus [1], more than 200 µg/mL; in the series on Pseudomonas aeruginosa, more than 200 µg/mL. Besides, the MIC against Escherichia coli is more than 200 µg/mL; in series [3] it was 25 µg/mL (≈ 86.7 µM); against Bacillus subtilis, 200 µg/mL (≈ 693 µM); against Proteus vulgaris, more than 200 µg/mL; with Burkholderia cepacia, more than 200 µg/mL; in the series on Streptococcus pyogenes, 0.78 µg/mL (≈ 2.7 µM). In addition, the results for the MIC against Enterococcus faecalis, against Klebsiella pneumoniae and in the series with Staphylococcus aureus [5] were more than 200 µg/mL, more than 200 µg/mL and 200 µg/mL (≈ 693 µM), respectively. In series [2], this compound displayed an IC50 of 884 nM. The solubility in series [4] stood at 10.5 µg/mL (≈ 36.4 µM).

Take `O=C(Nc1ncccn1)NC12CC3CC(CC(C3)C1)C2`: the MIC in the series on Acinetobacter, against Bacillus anthracis, against Streptococcus pneumoniae, in the series on Proteus mirabilis, against Staphylococcus aureus [1] and with Pseudomonas aeruginosa was more than 200 µg/mL throughout. Also, the MIC was more than 200 µg/mL against Escherichia coli; 200 µg/mL (≈ 734 µM) in series [3]; more than 200 µg/mL with Bacillus subtilis; more than 200 µg/mL in the series on Proteus vulgaris; more than 200 µg/mL in the series with Burkholderia cepacia; more than 200 µg/mL against Streptococcus pyogenes. Further, the MIC in the series with Enterococcus faecalis, with Klebsiella pneumoniae and in the series with Staphylococcus aureus [5] was more than 200 µg/mL throughout. In addition, the IC50 in series [2] was 24000 nM. In series [4], the solubility was 6.9 µg/mL (≈ 25.3 µM).

`Cc1ccnc(NS(=O)(=O)c2ccc(NC(=O)NC34CC5CC(CC(C5)C3)C4)cc2)n1`: the MIC against Acinetobacter is 100 µg/mL (≈ 226 µM); against Bacillus anthracis it was 100 µg/mL (≈ 226 µM); in the series with Streptococcus pneumoniae, more than 200 µg/mL; with Proteus mirabilis it was more than 200 µg/mL; against Staphylococcus aureus [1], more than 200 µg/mL; in the series with Pseudomonas aeruginosa it was more than 200 µg/mL. Further, the MIC in the series with Escherichia coli was more than 200 µg/mL; in series [3], more than 25 µg/mL; against Bacillus subtilis, more than 200 µg/mL; with Proteus vulgaris it was more than 200 µg/mL; against Burkholderia cepacia, more than 200 µg/mL; against Streptococcus pyogenes, more than 200 µg/mL. For the same compound, the MIC in the series on Enterococcus faecalis, against Klebsiella pneumoniae and against Staphylococcus aureus [5] was more than 200 µg/mL throughout. The IC50 in series [2] is 17 nM. This compound also registered a solubility in series [4] of 2.5 µg/mL (≈ 5.66 µM).

Take `Cc1cc(CNC(=O)NC23CC4CC(CC(C4)C2)C3)no1`: the MIC in the series on Acinetobacter, in the series with Bacillus anthracis, in the series on Streptococcus pneumoniae, with Proteus mirabilis, against Staphylococcus aureus [1] and against Pseudomonas aeruginosa was more than 200 µg/mL throughout. In addition, the MIC against Escherichia coli is more than 200 µg/mL; in [3], more than 50 µg/mL; in the series with Bacillus subtilis, more than 200 µg/mL; against Proteus vulgaris, more than 200 µg/mL; against Burkholderia cepacia, more than 200 µg/mL; against Streptococcus pyogenes, more than 200 µg/mL. Moreover, the MIC against Enterococcus faecalis, against Klebsiella pneumoniae and against Staphylococcus aureus [5] was more than 200 µg/mL throughout. In [2], this compound had an IC50 of 1550 nM. In addition, the solubility in [4] stood at 3 µg/mL (≈ 10.4 µM).

For the compound `O=C(Nc1nccnn1)NC12CC3CC(CC(C3)C1)C2`, the MIC in the series with Acinetobacter, against Bacillus anthracis, in the series with Streptococcus pneumoniae, with Proteus mirabilis, with Staphylococcus aureus [1] and in the series on Pseudomonas aeruginosa was more than 200 µg/mL each time. Besides, the MIC against Escherichia coli is more than 200 µg/mL; in series [3] it was 200 µg/mL (≈ 732 µM); with Bacillus subtilis, more than 200 µg/mL; against Proteus vulgaris it was more than 200 µg/mL; against Burkholderia cepacia, more than 200 µg/mL; with Streptococcus pyogenes, more than 200 µg/mL. The MIC in the series with Enterococcus faecalis, against Klebsiella pneumoniae and in the series with Staphylococcus aureus [5] was more than 200 µg/mL each time. Inhibition in [2] was half-maximal at 1010 nM (IC50). This compound also gave a solubility in series [4] of 6.8 µg/mL (≈ 24.9 µM).
